Measured values as given in publication PMC9977294, “A parasitic fungus employs mutated eIF4A to survive on rocaglate-synthesizing Aglaia plants” (eLife, 2023).
Values joined by “and” are separate entries in the source; they are usually repeats but may differ in a detail not shown here. Equal values may be shown once.

Assays:
[1] = target: Ophiocordyceps sp. BRM1 eIF4A iso4 Gly172His; test: Fluorescence polarization assay, FAM-labeled [AG]10 RNA and recombinant eIF4A; format: binding; conditions: for Fluorescence polarization signal, FAM-labeled [AG]10 RNA, single replicates / Fluorescence polarization signal, FAM-labeled [AG]10 RNA, Mean: ADP + Pi, aglafoline; for Fluorescence polarization signal, FAM-labeled [AG]10 RNA, single replicates: Replicate 1-3; for Fluorescence polarization signal, FAM-labeled [AG]10 RNA, Mean: mean of 3 replicates
Procedure: (§1) The fluorescence polarization assay was performed as previously described ([Chen et al., 2021]). […] After incubation at room temperature for 30 min, the mixture was transferred to a black 384-well microplate (Corning), and the fluorescence polarization was measured by an Infinite F-200 PRO (Tecan). Under ADP + Pi conditions, 1 mM ADP (Fujifilm Wako Chemicals) and 1 mM Na2HPO4 were used as substitutes for AMP-PNP. The data were fitted to the Hill equation to calculate Kd values and visualized by Igor Pro v8.01 (WaveMetrics).

[2] = target: Ophiocordyceps sp. BRM1 eIF4A iso4 Gly172Phe; test: as above; format: binding; conditions: for Fluorescence polarization, Replicate 1-3 / fluorescence polarization, Mean: [AG]10 RNA, ADP + Pi, Aglafoline
Procedure: as §1

[3] = target: Ophiocordyceps sp. BRM1 eIF4A iso4 WT Gly172; test: as above; format: binding; conditions: for Fluorescence polarization signal, FAM-labeled [AG]10 RNA, single replicates / Fluorescence polarization signal, FAM-labeled [AG]10 RNA, Mean: ADP + Pi, aglafoline; for Fluorescence polarization signal, FAM-labeled [AG]10 RNA, single replicates: Replicate 1-3; for Fluorescence polarization signal, FAM-labeled [AG]10 RNA, Mean: mean of 3 replicates
Procedure: as §1

C. sativus leaves = test: Morphology of cucumber leaves sprayed with aglafoline; format: in vivo, Cucumis sativus; conditions: aglafoline 1 µM in water sprayed, 3 days
Procedure: Figure 4. Phenotypic comparison of the C. orbiculare eIF4A^WT and eIF4A^His153Gly strains during infection in the presence of rocaglate. (A) Workflow for monitoring the biomass of C. orbiculare eIF4A^WT or eIF4A^His153Gly strains on cucumber leaves under treatment with aglafoline. (B) Comparison of in planta fungal biomass of C. orbiculare eIF4A^WT or eIF4A^His153Gly strains with or without treatment with 1 µM aglafoline. Relative expression levels of the C. orbiculare 60 S ribosomal protein L5 gene (GenBank: Cob_v012718) normalized to that of a cucumber cyclophilin gene (GenBank: AY942800.1) were determined by RT–qPCR at 3 dpi (n = 8). The relative fungal biomasses of C. orbiculare were normalized to those of eIF4A^WT without aglafoline. Significance was calculated by Student’s t-test (two-tailed). […] Figure 4—source data 1. Files for the primary data corresponding to Figure 4B. Figure 4—figure supplement 1. Characterization of cucumber leaves treated with aglafoline. (A) C. sativus leaves were sprayed with DMSO or aglafoline (1 µM) in water and incubated for 3 days using the same method as C. orbiculare inoculation. Figure 4—figure supplement 1—source data 1. Files for the full and unedited pictures corresponding to Figure 4—figure supplement 1A. [drawing 12]

[4] = [AG]10 10 nM, ADP + Pi (1 mM each), compound 50 µM, read-out: Kd between eIF4A protein and RNA

In the case of `COC(=O)[C@H]1[C@@H](O)[C@@]2(O)c3c(OC)cc(OC)cc3O[C@@]2(c2ccc(OC)cc2)[C@@H]1c1ccccc1` [Aglafoline, methyl rocaglate], the Kd [1, 4] is reported as 1.5 ± 0.14 µM, the “Fluorescence polarization signal, FAM-labeled [AG]10 RNA, single replicates” value ([1]; protein concentration 0.01 μM) is reported as -0.03825 and 0.04372 (2×) and the “Fluorescence polarization signal, FAM-labeled [AG]10 RNA, Mean” value (“Fluorescence polarization signal … Mean” below) ([1]; protein concentration 0.01 μM) is reported as 0.01639. The “Fluorescence polarization signal, FAM-labeled [AG]10 RNA, single replicates” value ([1]; protein concentration 0.05 μM) was 0.04372 and 0.1011 and 0.0765, the “Fluorescence polarization signal … Mean” value ([1]; protein concentration 0.05 μM) was 0.07377 and the “Fluorescence polarization signal, FAM-labeled [AG]10 RNA, single replicates” value ([1]; protein concentration 0.075 μM) was 0.0847 and 0.06011 and 0.03552. For the same molecule, the “Fluorescence polarization signal … Mean” value ([1]; protein concentration 0.075 μM) was 0.06011, the “Fluorescence polarization signal, FAM-labeled [AG]10 RNA, single replicates” value ([1]; protein concentration 0.1 μM) was 0.0847 and 0.06011 and 0.06831 and the “Fluorescence polarization signal … Mean” value ([1]; protein concentration 0.1 μM) was 0.07104. For the same molecule, the “Fluorescence polarization signal, FAM-labeled [AG]10 RNA, single replicates” value ([1]; protein concentration 0.5 μM) was 0.3388 and 0.429 and 0.3634, the “Fluorescence polarization signal … Mean” value ([1]; protein concentration 0.5 μM) was 0.377 and the “Fluorescence polarization signal, FAM-labeled [AG]10 RNA, single replicates” value ([1]; protein concentration 0.75 μM) was 0.5191 and 0.4372 and 0.429. The “Fluorescence polarization signal … Mean” value ([1]; protein concentration 0.75 μM) was 0.4617, the “Fluorescence polarization signal, FAM-labeled [AG]10 RNA, single replicates” value ([1]; protein concentration 1 μM) was 0.5765 and 0.7158 and 0.5847 and the “Fluorescence polarization signal … Mean” value ([1]; protein concentration 1 μM) was 0.6257. The “Fluorescence polarization signal, FAM-labeled [AG]10 RNA, single replicates” value ([1]; protein concentration 5 μM) was 1.011 and 0.9208 and 0.888, the “Fluorescence polarization signal … Mean” value ([1]; protein concentration 5 μM) was 0.9399 and the “Fluorescence polarization signal, FAM-labeled [AG]10 RNA, single replicates” value ([1]; protein concentration 7.5 μM) was 1.019 and 0.9372 and 0.9699. For the same molecule, the “Fluorescence polarization signal … Mean” value ([1]; protein concentration 7.5 μM) was 0.9754, the “Fluorescence polarization signal, FAM-labeled [AG]10 RNA, single replicates” value ([1]; protein concentration 10 μM) was 1.126 and 1.06 and 1.027 and the “Fluorescence polarization signal … Mean” value ([1]; protein concentration 10 μM) was 1.071. The “Fluorescence polarization signal, FAM-labeled [AG]10 RNA, single replicates” value ([1]; protein concentration 25 μM) was 1.208 and 1.167 and 1.15, the “Fluorescence polarization signal … Mean” value ([1]; protein concentration 25 μM) was 1.175 and the “Fluorescence polarization signal, FAM-labeled [AG]10 RNA, single replicates” value ([1]; protein concentration 50 μM) was 1.191 and 1.306 and 1.257. For the same molecule, the “Fluorescence polarization signal … Mean” value ([1]; protein concentration 50 μM) was 1.251, the Kd [2, 4] was 0.11 ± 0.021 µM and the “Fluorescence polarization, Replicate 1-3” value ([2]; protein concentration 0.01 μM) was 0.1148 and 0.008197 and 0.04098. The “fluorescence polarization, Mean” value ([2]; protein concentration 0.01 μM) was 0.05464, the “Fluorescence polarization, Replicate 1-3” value ([2]; protein concentration 0.05 μM) was 0.2869 (2×) and 0.3279 and the “fluorescence polarization, Mean” value ([2]; protein concentration 0.05 μM) was 0.3005. For the same molecule, the “Fluorescence polarization, Replicate 1-3” value ([2]; protein concentration 0.075 μM) was 0.3689 and 0.3279 and 0.2869, the “fluorescence polarization, Mean” value ([2]; protein concentration 0.075 μM) was 0.3279 and the “Fluorescence polarization, Replicate 1-3” value ([2]; protein concentration 0.1 μM) was 0.5164 and 0.3115 and 0.2787. For the same molecule, the “fluorescence polarization, Mean” value ([2]; protein concentration 0.1 μM) was 0.3689, the “Fluorescence polarization, Replicate 1-3” value ([2]; protein concentration 0.5 μM) was 0.9262 and 0.9426 and 0.8197 and the “fluorescence polarization, Mean” value ([2]; protein concentration 0.5 μM) was 0.8962. The “Fluorescence polarization, Replicate 1-3” value ([2]; protein concentration 0.75 μM) was 0.9508 and 0.8443 and 0.8934, the “fluorescence polarization, Mean” value ([2]; protein concentration 0.75 μM) was 0.8962 and the “Fluorescence polarization, Replicate 1-3” value ([2]; protein concentration 1 μM) was 0.7869 and 0.877 and 0.7623. For the same molecule, the “fluorescence polarization, Mean” value ([2]; protein concentration 1 μM) was 0.8087, the “Fluorescence polarization, Replicate 1-3” value ([2]; protein concentration 5 μM) was 0.9016 and 0.9426 and 0.8852 and the “fluorescence polarization, Mean” value ([2]; protein concentration 5 μM) was 0.9098. For the same molecule, the “Fluorescence polarization, Replicate 1-3” value ([2]; protein concentration 7.5 μM) was 0.8934 and 1.016 and 0.9344, the “fluorescence polarization, Mean” value ([2]; protein concentration 7.5 μM) was 0.9481 and the “Fluorescence polarization, Replicate 1-3” value ([2]; protein concentration 10 μM) was 1.057 and 0.8934 and 0.877. The “fluorescence polarization, Mean” value ([2]; protein concentration 10 μM) was 0.9426, the “Fluorescence polarization, Replicate 1-3” value ([2]; protein concentration 25 μM) was 0.8852 and 1.033 and 1.057 and the “fluorescence polarization, Mean” value ([2]; protein concentration 25 μM) was 0.9918. For the same molecule, the Kd [3, 4] was 2.6 ± 0.4 µM, the “Fluorescence polarization signal, FAM-labeled [AG]10 RNA, single replicates” value ([3]; protein concentration 0.01 μM) was 0.02459 and 0.04098 and 0.008197 and the “Fluorescence polarization signal … Mean” value ([3]; protein concentration 0.01 μM) was 0.02459. For the same molecule, the “Fluorescence polarization signal, FAM-labeled [AG]10 RNA, single replicates” value ([3]; protein concentration 0.05 μM) was 0.03279 and -0.008197 and -0.07377, the “Fluorescence polarization signal … Mean” value ([3]; protein concentration 0.05 μM) was -0.01639 and the “Fluorescence polarization signal, FAM-labeled [AG]10 RNA, single replicates” value ([3]; protein concentration 0.075 μM) was -0.04918 and -0.03279 and 0.01639. For the same molecule, the “Fluorescence polarization signal … Mean” value ([3]; protein concentration 0.075 μM) was -0.02186, the “Fluorescence polarization signal, FAM-labeled [AG]10 RNA, single replicates” value ([3]; protein concentration 0.1 μM) was -0.02459 and -0.04098 and -0.05738 and the “Fluorescence polarization signal … Mean” value ([3]; protein concentration 0.1 μM) was -0.04098. The “Fluorescence polarization signal, FAM-labeled [AG]10 RNA, single replicates” value ([3]; protein concentration 0.5 μM) was 0.1557 and -0.1066 and 0.01639, the “Fluorescence polarization signal … Mean” value ([3]; protein concentration 0.5 μM) was 0.02186 and the “Fluorescence polarization signal, FAM-labeled [AG]10 RNA, single replicates” value ([3]; protein concentration 0.75 μM) was 0.1967 and 0.03279 and 0.1721. The “Fluorescence polarization signal … Mean” value ([3]; protein concentration 0.75 μM) was 0.1339, the “Fluorescence polarization signal, FAM-labeled [AG]10 RNA, single replicates” value ([3]; protein concentration 1 μM) was 0.09836 and 0.06557 and 0.1557 and the “Fluorescence polarization signal … Mean” value ([3]; protein concentration 1 μM) was 0.1066. For the same molecule, the “Fluorescence polarization signal, FAM-labeled [AG]10 RNA, single replicates” value ([3]; protein concentration 5 μM) was 0.582 and 0.6803 and 0.5902, the “Fluorescence polarization signal … Mean” value ([3]; protein concentration 5 μM) was 0.6175 and the “Fluorescence polarization signal, FAM-labeled [AG]10 RNA, single replicates” value ([3]; protein concentration 7.5 μM) was 0.5902 and 0.6311 and 0.7541. For the same molecule, the “Fluorescence polarization signal … Mean” value ([3]; protein concentration 7.5 μM) was 0.6585, the “Fluorescence polarization signal, FAM-labeled [AG]10 RNA, single replicates” value ([3]; protein concentration 10 μM) was 0.6557 and 0.7049 and 0.7131 and the “Fluorescence polarization signal … Mean” value ([3]; protein concentration 10 μM) was 0.6913. The “Fluorescence polarization signal, FAM-labeled [AG]10 RNA, single replicates” value ([3]; protein concentration 25 μM) was 0.7787 and 0.8279 and 0.877, the “Fluorescence polarization signal … Mean” value ([3]; protein concentration 25 μM) was 0.8279 and the “morphological alteration of cucumber leaves” value (C. sativus leaves) was “no morphological alteration of the leaves was observed”.
